Experimental data taken from patent US10596172B2 (Celgene CAR LLC, priority 2008, dated 2020).
Like-named read-outs stand apart in the source and are kept apart here.

Columns and labels:
JAK3 = JAK3 (Homo sapiens (Human), UniProt P52333); experiment: Omnia assay for potency assessment against the active form of JAK3; assay type: biochemical; conditions: read-out: JAK3 Inhibition
Method: Briefly, 10× stocks of EGFR-WT (PV3872) from Invitrogen and EGFR-T790M/L858R (40350) from BPS Bioscience, San Diego, Calif., 1.13×ATP (AS001A) and appropriate Tyr-Sox conjugated peptide substrates (KCZ1001) were prepared in 1× kinase reaction buffer consisting of 20 mM Tris, pH 7.5, 5 mM MgCl2, 1 mM EGTA, 5 mM β-glycerophosphate, 5% glycerol (10× stock, KB002A) and 0.2 mM DTT (DS001A).
The Omnia Assay Protocol for potency assessment against JAK3 was performed in a substantially similar manner as that described in Example 251 above except that the modified JAK3-optimized reagent conditions were:
[JAK3]=5 nM, [ATP]=5 μM, [Y12-Sox]=5 μM (ATP KMapp˜5 μM).

[1] = tested on: B cell lymphoma cell lines; experiment: B cell lymphoma proliferation assay; assay type: cell-based
EGFR-WT = EGFR-WT (Homo sapiens (Human), UniProt P00533); experiment: Omnia assay for potency assessment against EGFR (WT); assay type: biochemical; conditions: wild-type EGFR; read-out: EGFR Wild Type Inhibition
BTK = BTK (Homo sapiens (Human), UniProt Q06187); experiment: Omnia assay for potency assessment against BTK; assay type: biochemical; conditions: [BTK]=5 nm; read-out: BTK Inhibition
Method: Omnia Assay Protocol for Potency Assessment Against BTK
The modified BTK-optimized reagent conditions for the above protocol are:
[BTK]=5 nm, [ATP]=40 mM, [Y5-Sox]=10 mM (ATP KMapp˜36 mM).

[2] = Homo sapiens, DOHH-2, DOHH2 B cell lymphoma cell line, read-out: EC50 (μM) DOHH2
[3] = Homo sapiens, WSUDLCL2, WSU-DLCL2 B cell lymphoma cell line, read-out: EC50 (μM) WSU-DLCL2

Chain of JAK3 (P52333 whole entry): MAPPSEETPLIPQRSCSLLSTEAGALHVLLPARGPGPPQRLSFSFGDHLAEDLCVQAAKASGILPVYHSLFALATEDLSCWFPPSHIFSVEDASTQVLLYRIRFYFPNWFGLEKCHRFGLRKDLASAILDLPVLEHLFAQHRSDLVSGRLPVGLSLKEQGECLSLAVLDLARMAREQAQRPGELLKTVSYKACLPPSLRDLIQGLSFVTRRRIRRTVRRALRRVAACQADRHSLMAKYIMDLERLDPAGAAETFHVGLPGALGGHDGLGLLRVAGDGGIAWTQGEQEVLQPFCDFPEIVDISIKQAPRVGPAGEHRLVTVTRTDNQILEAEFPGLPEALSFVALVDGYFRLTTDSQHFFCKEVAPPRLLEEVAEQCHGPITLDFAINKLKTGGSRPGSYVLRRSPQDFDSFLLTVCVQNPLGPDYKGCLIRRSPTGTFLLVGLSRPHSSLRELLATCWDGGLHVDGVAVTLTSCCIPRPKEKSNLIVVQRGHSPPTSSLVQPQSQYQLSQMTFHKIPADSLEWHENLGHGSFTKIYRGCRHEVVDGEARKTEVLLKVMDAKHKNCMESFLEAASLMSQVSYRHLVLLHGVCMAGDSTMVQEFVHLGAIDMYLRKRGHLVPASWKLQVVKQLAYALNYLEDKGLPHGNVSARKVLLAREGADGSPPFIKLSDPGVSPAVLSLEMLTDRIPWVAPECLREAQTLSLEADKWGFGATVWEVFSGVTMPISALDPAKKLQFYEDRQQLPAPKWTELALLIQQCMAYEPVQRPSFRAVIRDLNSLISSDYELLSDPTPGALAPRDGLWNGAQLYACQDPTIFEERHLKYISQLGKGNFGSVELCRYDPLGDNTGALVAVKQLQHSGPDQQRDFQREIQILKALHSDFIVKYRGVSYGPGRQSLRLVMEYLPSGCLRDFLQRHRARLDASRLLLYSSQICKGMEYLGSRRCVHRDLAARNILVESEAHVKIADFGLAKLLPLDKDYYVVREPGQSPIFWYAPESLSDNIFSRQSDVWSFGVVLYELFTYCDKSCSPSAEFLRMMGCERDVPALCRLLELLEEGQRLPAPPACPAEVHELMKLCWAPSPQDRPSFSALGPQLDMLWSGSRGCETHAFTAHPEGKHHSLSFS
Chain of EGFR-WT (P00533 25-1210): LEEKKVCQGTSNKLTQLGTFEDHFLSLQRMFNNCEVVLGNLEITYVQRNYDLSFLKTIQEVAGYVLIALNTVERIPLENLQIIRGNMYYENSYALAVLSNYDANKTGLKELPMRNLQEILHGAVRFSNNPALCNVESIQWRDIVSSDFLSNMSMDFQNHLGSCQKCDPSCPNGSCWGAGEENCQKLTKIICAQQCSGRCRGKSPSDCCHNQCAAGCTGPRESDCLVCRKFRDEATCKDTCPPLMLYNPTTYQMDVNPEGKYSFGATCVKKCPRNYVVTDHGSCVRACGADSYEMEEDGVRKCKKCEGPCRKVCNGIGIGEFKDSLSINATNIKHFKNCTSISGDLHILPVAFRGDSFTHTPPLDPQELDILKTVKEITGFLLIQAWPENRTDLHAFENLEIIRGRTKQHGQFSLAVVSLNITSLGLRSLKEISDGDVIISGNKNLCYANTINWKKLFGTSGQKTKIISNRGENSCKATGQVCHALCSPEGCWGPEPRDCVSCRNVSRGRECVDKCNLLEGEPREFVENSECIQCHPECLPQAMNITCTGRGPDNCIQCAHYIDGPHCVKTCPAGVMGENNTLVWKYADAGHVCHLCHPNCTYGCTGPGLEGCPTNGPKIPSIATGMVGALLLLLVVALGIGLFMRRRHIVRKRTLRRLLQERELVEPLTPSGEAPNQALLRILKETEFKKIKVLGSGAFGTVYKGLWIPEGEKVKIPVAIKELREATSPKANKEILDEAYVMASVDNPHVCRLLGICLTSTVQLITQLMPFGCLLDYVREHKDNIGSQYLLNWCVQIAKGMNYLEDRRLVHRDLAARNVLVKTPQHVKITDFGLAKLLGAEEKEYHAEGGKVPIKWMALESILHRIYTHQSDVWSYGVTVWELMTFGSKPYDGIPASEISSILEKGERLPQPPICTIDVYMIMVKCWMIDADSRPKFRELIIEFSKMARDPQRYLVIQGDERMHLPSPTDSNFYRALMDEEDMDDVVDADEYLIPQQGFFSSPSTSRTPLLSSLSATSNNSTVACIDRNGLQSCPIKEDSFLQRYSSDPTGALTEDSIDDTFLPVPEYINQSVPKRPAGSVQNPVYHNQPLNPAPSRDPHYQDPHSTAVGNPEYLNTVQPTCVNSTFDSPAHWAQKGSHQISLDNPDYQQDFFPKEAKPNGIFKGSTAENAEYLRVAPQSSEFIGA
Chain of BTK (Q06187 whole entry): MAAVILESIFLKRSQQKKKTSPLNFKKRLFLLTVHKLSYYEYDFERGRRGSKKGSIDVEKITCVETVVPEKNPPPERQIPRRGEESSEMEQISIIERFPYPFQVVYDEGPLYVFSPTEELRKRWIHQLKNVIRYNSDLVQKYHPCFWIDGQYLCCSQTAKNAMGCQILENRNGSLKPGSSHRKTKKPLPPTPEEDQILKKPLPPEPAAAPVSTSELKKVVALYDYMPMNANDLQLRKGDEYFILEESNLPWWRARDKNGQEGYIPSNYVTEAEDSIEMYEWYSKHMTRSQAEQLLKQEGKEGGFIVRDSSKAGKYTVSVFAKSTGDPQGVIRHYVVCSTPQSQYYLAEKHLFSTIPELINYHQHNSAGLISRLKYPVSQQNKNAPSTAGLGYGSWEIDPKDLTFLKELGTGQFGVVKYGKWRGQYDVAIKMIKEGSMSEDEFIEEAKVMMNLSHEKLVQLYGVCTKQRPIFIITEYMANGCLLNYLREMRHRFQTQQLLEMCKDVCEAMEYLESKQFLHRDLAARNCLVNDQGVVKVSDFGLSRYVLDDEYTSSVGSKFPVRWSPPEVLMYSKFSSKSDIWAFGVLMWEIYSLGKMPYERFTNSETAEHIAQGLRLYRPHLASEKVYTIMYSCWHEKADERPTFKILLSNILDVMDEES

| Structure (SMILES) | IC50 (JAK3) | IC50 (EGFR-WT) | further results |
| --- | --- | --- | --- |
| C=CC(=O)Nc1cccc(Nc2nc(Nc3cccc(OCCCNC(=O)OC(C)(C)C)c3)ncc2C)c1 [Compound I-45, tert-butyl 3-(3-(4-(3-acrylamidophenylamino)-5-methylpyrimidin-2-ylamino)phenoxy)propylcarbamate] | < 10 nM | – | – |
| C/C=C/C(=O)OCc1cccc(Nc2nc(Nc3ccccc3)ncc2C)c1 [Compound I-246, (E)-3-(5-methyl-2-(phenylamino)pyrimidin-4-ylamino)benzyl but-2-enoate] | 100 to 1000 nM | – | – |
| C=CC(=O)Nc1cccc(Nc2ncc(F)c(Nc3cccc(C)c3)n2)c1 [Compound I-3, N-(3-(5-fluoro-4-(m-tolylamino)pyrimidin-2-ylamino)phenyl)acrylamide] | < 10 nM | – | EC50 [1, 2]: 0.1 to 1 µM |
| C=CC(=O)N1CCC[C@H](Nc2nc(Nc3ccc(OC)nc3)ncc2F)C1 [Compound I-197, (S)-1-(3-(5-fluoro-2-(6-methoxypyridin-3-ylamino)pyrimidin-4-ylamino)piperidin-1-yl)prop-2-en-1-one] | – | 100 to 1000 nM | IC50 (BTK): 100 to 1000 nM |
| C=CC(=O)Nc1ccc(C)c(Nc2ncc(C)c(Nc3cccc(C)c3)n2)c1 [Compound I-8, N-(4-methyl-3-(5-methyl-4-(m-tolylamino)pyrimidin-2-ylamino)phenyl)acrylamide] | < 10 nM | – | – |
| C=CC(=O)Nc1cccc(Oc2nc(Nc3cc(OC)c(OC)c(OC)c3)ncc2F)c1 [Compound I-148, N-(3-(5-fluoro-2(3,4,5-trimethoxyphenylamino)pyrimidin-4-yloxy)phenyl)acrylamide] | – | 1000 to 10000 nM | IC50 (BTK): 1000 to 10000 nM |
| C=CC(=O)Nc1cccc(N(C)c2nc(Nc3ccccc3)ncc2C)c1 [Compound I-34, N-(3-(methyl(5-methyl-2-(phenylamino)pyrimidin-4-yl)amino)phenyl)acrylamide] | 10 to 100 nM | – | – |
| C=CC(=O)N1CCOc2ccc(Nc3nc(Nc4ccc(OC)nc4)ncc3C(C)=O)cc21 [Compound I-170, 1-{6-[5-Acetyl-2-(6-methoxy-pyridin-3-ylamino)-pyrimidin-4-ylamino]-2,3-dihydro-benzo[1,4]oxazin-4-yl}-propenone] | – | 10 to 100 nM | – |
| C=CC(=O)Nc1cccc(Nc2nc(Nc3ccc(O[C@@H](C)CO)c(F)c3)ncc2F)c1 [Compound I-373, (S)—N-(3-(5-fluoro-2-(3-fluoro-4-(1-hydroxypropan-2-yloxy)phenylamino)pyrimidin-4-ylamino)phenyl)acrylamide] | – | 10 to 100 nM | IC50 (BTK): < 10 nM |
| C=CC(=O)Nc1cccc(Nc2nc(Nc3ccc(O[C@H](C)CO)c(F)c3)ncc2F)c1 [Compound I-372, (R)—N-(3-(5-fluoro-2-(3-fluoro-4-(1-hydroxypropan-2-yloxy)phenylamino)pyrimidin-4-ylamino)phenyl)acrylamide] | – | 10 to 100 nM | IC50 (BTK): < 10 nM |
| C=CC(=O)Nc1cccc(Nc2nccc(Nc3cccc(C)c3)n2)c1 [Compound I-1, N-(3-(4-(m-tolylamino)pyrimidin-2-ylamino)phenyl)acrylamide] | < 10 nM | – | – |
| C=CC(=O)Nc1cccc(Nc2nc(Nc3ccc(O[C@H](C)COC(=O)[C@@H](N)C(C)C)c(F)c3)ncc2F)c1 [Compound I-374, (S)-((R)-2-(4-(4-(3-acrylamidophenylamino)-5-fluoropyrimidin-2-ylamino)-2-fluorophenoxy)propyl) 2-amino-3-methylbutanoate] | – | < 10 nM | IC50 (BTK): < 10 nM |
| C=CC(=O)Nc1cccc(Nc2nc(NC3CCCN(C(C)=O)C3)ncc2F)c1 (stereo not drawn) [Compound I-238, N-(3-(2-(1-acetylpiperidin-3-ylamino)-5-fluoropyrimidin-4-ylamino)phenyl)acrylamide] | 1000 to 10000 nM | – | – |
| C=CC(=O)N1CCCC(Nc2nc(Nc3ccccc3)ncc2C)C1 (stereo not drawn) [Compound I-27] | 10 to 100 nM | – | EC50 [1, 2]: 1 to 10 µM; EC50 [1, 3]: > 10 µM |
| C=CC(=O)Nc1cccc(Nc2ncc(F)c(Nc3cccc(OCCN4CCOCC4)c3)n2)c1 [Compound I-382, N-(3-(5-fluoro-4-(3-(2-morpholinoethoxy)phenylamino)pyrimidin-2-ylamino)phenyl)acrylamide] | – | 100 to 1000 nM | IC50 (BTK): 10 to 100 nM |
| C=CC(=O)Nc1cccc(Nc2ncc(F)c(Nc3ccc(OCCOC)cc3)n2)c1 [Compound I-381, N-(3-(5-fluoro-4-(4-(2-methoxyethoxy)phenylamino)pyrimidin-2-ylamino)phenyl)acrylamide] | – | < 10 nM | IC50 (BTK): < 10 nM |

| Structure (SMILES) | IC50 (JAK3) | IC50 (EGFR-WT) | further results |
| --- | --- | --- | --- |
| C=CC(=O)Nc1cccc(Nc2nc(Nc3ccccc3)ncc2C(F)(F)F)c1 [Compound I-245, N-(3-(5-trifluoromethyl-2-(phenylamino)pyrimidin-4-ylamino)phenyl)acrylamide] | < 10 nM | – | EC50 [1, 2]: 1 to 10 µM; EC50 [1, 3]: > 10 µM |
| C=CC(=O)Nc1cccc(Nc2nc(Nc3ccc(OCCOCCN=[N+]=[N-])cc3)ncc2F)c1 [Compound I-371, N-(3-(2-(4-(2-(2-azidoethoxy)ethoxy)phenylamino)-5-fluoropyrimidin-4-ylamino)phenyl)acrylamide] | – | 10 to 100 nM | IC50 (BTK): < 10 nM |
| C=CC(=O)Nc1ccc(C)c(Nc2nccc(-c3cccnc3)n2)c1 [Compound I-56, N-(4-methyl-3-(4-(pyridin-3-yl)pyrimidin-2-ylamino)phenyl)acrylamide] | 10 to 100 nM | – | – |
| C=CC(=O)Nc1cccc(Nc2nc(Nc3ccc(O[C@@H](C)COC(=O)[C@@H](N)C(C)C)c(F)c3)ncc2F)c1 [Compound I-377, (S)-((S)-2-(4-(4-(3-acrylamidophenylamino)-5-fluoropyrimidin-2-ylamino)-2-fluorophenoxy)propyl) 2-amino-3-methylbutanoate] | – | 10 to 100 nM | – |
| C=CC(=O)Nc1cccc(Nc2ncc(F)c(Nc3ccc(O[C@H]4CCOC4)cc3)n2)c1 [Compound I-338, (S)—N-(3-(5-fluoro-4-(4-(tetrahydrofuran-3-yloxy)phenylamino)pyrimidin-2-ylamino)phenyl)acrylamide] | – | 10 to 100 nM | – |
| C=CC(=O)Nc1cccc(Nc2ncc(C)c(Nc3cccc(Br)c3)n2)c1 [Compound I-9, N-(3-(4-(3-bromophenylamino)-5-methylpyrimidin-2-ylamino)phenyl) acrylamide] | < 10 nM | – | – |
| C=CC(=O)N1CCc2cc(Nc3nc(Nc4cccc(S(N)(=O)=O)c4)ncc3C)ccc2C1 [Compound I-40, 3-(4-(2-acryloyl-1,2,3,4-tetrahydroisoquinolin-6-ylamino)-5-methylpyrimidin-2-ylamino)benzenesulfonamide] | < 10 nM | – | EC50 [1, 2]: 0.1 to 1 µM; EC50 [1, 3]: 1 to 10 µM |
| C=CC(=O)Nc1cccc(Nc2nc(Nc3ccc(OCCOCCOCCN=[N+]=[N-])cc3)ncc2F)c1 [Compound I-379, N-(3-(2-(4-(2-(2-(2-azidoethoxy)ethoxy)ethoxy)phenylamino)-5-fluoropyrimidin-4-ylamino)phenyl)acrylamide] | – | 100 to 1000 nM | – |
| C=CC(=O)Nc1cccc(Nc2ncc(C)c(Nc3ccccc3)n2)c1 [Compound I-5, N-(3-(5-methyl-4-(phenylamino)pyrimidin-2-ylamino)phenyl) acrylamide] | < 10 nM | – | – |
| C=CC(=O)Nc1ccc(Nc2nc(Nc3ccccc3)ncc2C)cc1 [Compound I-39, N-(4-(5-methyl-2-(phenylamino)pyrimidin-4-ylamino)phenyl) acrylamide] | < 10 nM | – | EC50 [1, 2]: 1 to 10 µM; EC50 [1, 3]: 1 to 10 µM |
| C=CC(=O)Nc1cccc(Nc2nc(NCc3ccc(OC)cc3)ncc2F)c1 [Compound I-241, N-(3-(5-fluoro-2-(4-methoxybenzylamino)pyrimidin-4-ylamino)phenyl)acrylamide] | 100 to 1000 nM | – | – |
| C=CC(=O)Nc1cccc(Nc2nc(Nc3cccc(S(N)(=O)=O)c3)ncc2C)c1 [Compound I-33, N-(3-(5-methyl-2-(3-sulfamoylphenylamino)pyrimidin-4-ylamino)phenyl)acrylamide] | < 10 nM | – | – |
| C=CC(=O)N1CCOc2ccc(Nc3nc(Nc4ccc(OCCOC)cc4)ncc3F)cc21 [Compound I-141, 1-(6-(5-fluoro-2-(4-(2-methoxyethoxy)phenylamino)pyrimidin-4-ylamino)-2H-benzo[b][1,4]oxazin-4(3H)-yl)prop-2-en-1-one] | – | – | EC50 [1, 2]: 1 to 10 µM |
| C=CC(=O)N1CCOc2ccc(Nc3nc(Nc4ccc(OCCOC)cc4)ncc3C(C)=O)cc21 [Compound I-150, 1-(6-{5-Acetyl-2-[4-(2-methoxy-ethoxy)-phenylamino]-pyrimidin-4-ylamino}-2,3-dihydro-benzo[1,4]oxazin-4-yl)-propenone] | – | – | EC50 ([1]; DHL4 B cell lymphoma cell line, read-out: EC50 (μM) DHL4): 1 to 10 µM; EC50 [1, 2]: 1 to 10 µM; EC50 [1, 3]: 1 to 10 µM |
| COCCOc1ccc(Nc2ncc(F)c(Nc3cccc(C(=O)C=C(C)C)c3)n2)cc1F [Compound I-323, 1-(3-(5-fluoro-2-(3-fluoro-4-(2-methoxyethoxy)phenylamino)pyrimidin-4-ylamino)phenyl)-3-methylbut-2-en-1-one] | > 10000 nM | – | – |
